Laboratory results as given in ChEMBL document CHEMBL3885861, “Open TG-GATES”.

Species on record: Rattus norvegicus
Experiment: Open TG-GATES - Regimen: Single
Assay type: toxicity, organism-based, Sprague-Dawley
Design: regimen Single, gender Male, age 6 weeks
Conditions: in vivo, po, route gavage; for WBC / APTT / Bas / Eos / Fbg / Hb / Ht / Lym / MCH / MCHC / MCV / Mono / Neu / PT / Plat / RBC / Ret: tissue Blood; for KIDNEY_L / KIDNEY_R / KIDNEY_TOTAL: tissue Kidney; for LIVER: tissue Liver; for A/G / ALP / ALT / AST / BUN / CRE / Ca / Cl / DBIL / GLC / IP / K / LDH / Na / PL / RALB / TBIL / TC / TG / TP / gamma-GTP: tissue Plasma
[1] = 2 mg/kg, 9 h, dose level Middle
[2] = 2 mg/kg, 24 h, dose level Middle

In the case of `COc1ccc2c(c1)c(CC(=O)O)c(C)n2C(=O)c1ccc(Cl)cc1` [INDOMETHACIN], the WBC [1] is reported as 114.3 x10_2/uL, the KIDNEY_L [1] is reported as 0.9 g and the KIDNEY_R [1] is reported as 0.9 g. For the same compound, the KIDNEY_TOTAL [1] was 1.8 g, the LIVER [1] was 8.3 g and the A/G [1] was 2.7. The ALP [1] was 944 IU/L, the ALT [1] was 35.2 IU/L and the AST [1] was 65.6 IU/L. The BUN [1] was 14.2 mg/dL, the CRE [1] was 0.5 mg/dL and the Ca [1] was 10.2 mg/dL. It also gave a Cl [1] of 106.8 meq/L, a DBIL [1] of 0.01 mg/dL and a GLC [1] of 199.6 mg/dL. For the same compound, the IP [1] was 10.5 mg/dL, the K [1] was 5 meq/L and the LDH [1] was 80.8 IU/L. It also gave a Na [1] of 138.2 meq/L, a PL [1] of 125.8 mg/dL and an RALB [1] of 3.9 g/dL. It also gave a TBIL [1] of 0.5 mg/dL, a TC [1] of 72.2 mg/dL and a TG [1] of 35.4 mg/dL. For the same compound, the TP [1] was 5.3 g/dL, the gamma-GTP [1] was 1.8 IU/L and the TERMINAL_BW [2] was 209.2 g. For the same compound, the APTT [2] was 16.1 s, the Bas [2] was 0% and the Eos [2] was 0.8%. For the same compound, the Fbg [2] was 204.6 mg/dL, the Hb [2] was 13.4 g/dL and the Ht [2] was 40.7%. The Lym [2] was 80.6%, the MCH [2] was 21.5 pg and the MCHC [2] was 33%. The MCV [2] was 65 fL, the Mono [2] was 8.8% and the Neu [2] was 10.2%. The PT [2] was 12.1 s, the Plat [2] was 96.4 x10_4/uL and the RBC [2] was 626.8 x10_4/ul. It also gave a Ret [2] of 8.6%, a WBC [2] of 112.4 x10_2/uL and a KIDNEY_L [2] of 0.9 g. For the same compound, the KIDNEY_R [2] was 0.9 g, the KIDNEY_TOTAL [2] was 1.9 g and the LIVER [2] was 10.1 g. For the same compound, the A/G [2] was 2.4, the ALP [2] was 1232.8 IU/L and the ALT [2] was 38.2 IU/L. For the same compound, the AST [2] was 70.6 IU/L, the BUN [2] was 16.4 mg/dL and the CRE [2] was 0.5 mg/dL. It also gave a Ca [2] of 10.4 mg/dL, a Cl [2] of 106.4 meq/L and a DBIL [2] of 0.004 mg/dL. The GLC [2] was 195.4 mg/dL, the IP [2] was 8.1 mg/dL and the K [2] was 4.9 meq/L. The LDH [2] was 83.6 IU/L, the Na [2] was 138.4 meq/L and the PL [2] was 140.6 mg/dL. The RALB [2] was 3.9 g/dL, the TBIL [2] was 0.3 mg/dL and the TC [2] was 75.4 mg/dL. It also gave a TG [2] of 95.2 mg/dL, a TP [2] of 5.6 g/dL and a gamma-GTP [2] of 1.4 IU/L. It also gave a TERMINAL_BW (5 mg/kg, 3 h, dose level High) of 201.4 g, a TERMINAL_BW (5 mg/kg, 3 h, dose level Low) of 224.1 g and an APTT (5 mg/kg, 3 h, dose level High) of 16.5 s. The Bas (5 mg/kg, 3 h, dose level High) was 0%, the Eos (5 mg/kg, 3 h, dose level High) was 0.2% and the Fbg (5 mg/kg, 3 h, dose level High) was 211 mg/dL. It also gave a Hb (5 mg/kg, 3 h, dose level High) of 13.6 g/dL, a Ht (5 mg/kg, 3 h, dose level High) of 41.1% and a Lym (5 mg/kg, 3 h, dose level High) of 78.4%. It also gave an MCH (5 mg/kg, 3 h, dose level High) of 21.5 pg, an MCHC (5 mg/kg, 3 h, dose level High) of 33.3% and an MCV (5 mg/kg, 3 h, dose level High) of 64.8 fL. It also gave a Mono (5 mg/kg, 3 h, dose level High) of 9%, a Neu (5 mg/kg, 3 h, dose level High) of 12.4% and a PT (5 mg/kg, 3 h, dose level High) of 12.5 s. For the same compound, the Plat (5 mg/kg, 3 h, dose level High) was 108.6 x10_4/uL, the RBC (5 mg/kg, 3 h, dose level High) was 634.6 x10_4/ul and the Ret (5 mg/kg, 3 h, dose level High) was 8.9%. It also gave a WBC (5 mg/kg, 3 h, dose level High) of 130.2 x10_2/uL, an APTT (5 mg/kg, 3 h, dose level Low) of 18.2 s and an Eos (5 mg/kg, 3 h, dose level Low) of 0.8%. For the same compound, the Fbg (5 mg/kg, 3 h, dose level Low) was 222.6 mg/dL, the Hb (5 mg/kg, 3 h, dose level Low) was 13.9 g/dL and the Ht (5 mg/kg, 3 h, dose level Low) was 38%. For the same compound, the Lym (5 mg/kg, 3 h, dose level Low) was 79.4%, the MCH (5 mg/kg, 3 h, dose level Low) was 22.1 pg and the MCHC (5 mg/kg, 3 h, dose level Low) was 36.6%. For the same compound, the MCV (5 mg/kg, 3 h, dose level Low) was 60.4 fL, the Mono (5 mg/kg, 3 h, dose level Low) was 2.8% and the Neu (5 mg/kg, 3 h, dose level Low) was 15.6%. For the same compound, the PT (5 mg/kg, 3 h, dose level Low) was 11.7 s, the Plat (5 mg/kg, 3 h, dose level Low) was 115.7 x10_4/uL and the RBC (5 mg/kg, 3 h, dose level Low) was 629.4 x10_4/ul. The Ret (5 mg/kg, 3 h, dose level Low) was 7.6%, the WBC (5 mg/kg, 3 h, dose level Low) was 76.1 x10_2/uL and the KIDNEY_L (5 mg/kg, 3 h, dose level High) was 0.9 g. For the same compound, the KIDNEY_R (5 mg/kg, 3 h, dose level High) was 1 g, the KIDNEY_TOTAL (5 mg/kg, 3 h, dose level High) was 1.9 g and the KIDNEY_L (5 mg/kg, 3 h, dose level Low) was 1 g. It also gave a KIDNEY_TOTAL (5 mg/kg, 3 h, dose level Low) of 2.1 g, an LIVER (5 mg/kg, 3 h, dose level High) of 9.2 g and an LIVER (5 mg/kg, 3 h, dose level Low) of 9.6 g. For the same compound, the A/G (5 mg/kg, 3 h, dose level High) was 1.5, the ALP (5 mg/kg, 3 h, dose level High) was 1085.6 IU/L and the ALT (5 mg/kg, 3 h, dose level High) was 42.6 IU/L. The AST (5 mg/kg, 3 h, dose level High) was 70.2 IU/L, the BUN (5 mg/kg, 3 h, dose level High) was 11 mg/dL and the CRE (5 mg/kg, 3 h, dose level High) was 0.4 mg/dL. The Ca (5 mg/kg, 3 h, dose level High) was 10.5 mg/dL, the Cl (5 mg/kg, 3 h, dose level High) was 105.2 meq/L and the DBIL (5 mg/kg, 3 h, dose level High) was 0.034 mg/dL. The GLC (5 mg/kg, 3 h, dose level High) was 191 mg/dL, the IP (5 mg/kg, 3 h, dose level High) was 9.5 mg/dL and the K (5 mg/kg, 3 h, dose level High) was 5 meq/L. It also gave an LDH (5 mg/kg, 3 h, dose level High) of 172 IU/L, a Na (5 mg/kg, 3 h, dose level High) of 137 meq/L and a PL (5 mg/kg, 3 h, dose level High) of 126.2 mg/dL. It also gave an RALB (5 mg/kg, 3 h, dose level High) of 3.6 g/dL, a TBIL (5 mg/kg, 3 h, dose level High) of 0.3 mg/dL and a TC (5 mg/kg, 3 h, dose level High) of 71.8 mg/dL. It also gave a TG (5 mg/kg, 3 h, dose level High) of 55 mg/dL, a TP (5 mg/kg, 3 h, dose level High) of 6.1 g/dL and a gamma-GTP (5 mg/kg, 3 h, dose level High) of 1.2 IU/L. It also gave an A/G (5 mg/kg, 3 h, dose level Low) of 1.6, an ALP (5 mg/kg, 3 h, dose level Low) of 872.4 IU/L and an ALT (5 mg/kg, 3 h, dose level Low) of 37.8 IU/L. It also gave an AST (5 mg/kg, 3 h, dose level Low) of 76.4 IU/L, a BUN (5 mg/kg, 3 h, dose level Low) of 10.8 mg/dL and a Cl (5 mg/kg, 3 h, dose level Low) of 103 meq/L. It also gave a DBIL (5 mg/kg, 3 h, dose level Low) of 0.068 mg/dL, a GLC (5 mg/kg, 3 h, dose level Low) of 187.6 mg/dL and an IP (5 mg/kg, 3 h, dose level Low) of 9.3 mg/dL. It also gave a K (5 mg/kg, 3 h, dose level Low) of 4.2 meq/L, an LDH (5 mg/kg, 3 h, dose level Low) of 213 IU/L and a Na (5 mg/kg, 3 h, dose level Low) of 140.8 meq/L. It also gave a PL (5 mg/kg, 3 h, dose level Low) of 145.6 mg/dL, an RALB (5 mg/kg, 3 h, dose level Low) of 3.3 g/dL and a TBIL (5 mg/kg, 3 h, dose level Low) of 0.1 mg/dL. The TC (5 mg/kg, 3 h, dose level Low) was 85.4 mg/dL.
